We go through one compound from US20140343145A1, “RBP1 as a Molecular Biomarker for Predicting Survival and Response to Treatment in Glioma” (The Regents of the University of California, priority 2011, published 2014).

“Also recorded” adds a separate entry of the source.

The test system of assay [1] is primary glioblastoma multiforme patients. The assay is described as follows: Kaplan-Meier analysis of overall survival in the GBM Survival Cohort (124 primary glioblastoma patients) by RBP1 methylation and isotretinoin treatment. The class given is in vivo, human. An excerpt:
FIGS. 10A-10B show the Kaplan-Meier analysis of overall survival (OS) in a cohort of 124 primary glioblastoma mulitforme patients with respect to RBP1 methylation and isotretinoin (ITR) treatment. FIG. 10A provides RBP1-unmethylated patients treated (solid, n=19) vs untreated with isotretinoin (dotted, n=83). FIG. 10B provides RBP1-methylated patients treated (solid, n=7) and untreated with isotretinoin (dotted, n=15). RBP1=retinol binding protein 1; WT=wild-type; MUT=mutant; ITR=isotretinoin.
Within the 198-patient Total Cohort, 124 samples that were obtained from treatment-naïve primary GBM patients with detailed clinical information were retrospectively identified. Patients were treated with a combination of radiation (RT) and temozolomide (TMZ) after surgical resection (Stupp R, et al. N Engl J Med 2005; 352(10):987-96). Overall survival (OS) was defined as the date of diagnosis to date of death from any cause. For patients lost to follow-up without obtainable date of death, censoring date was last clinic visit or contact. If the last clinic or contact was after the Sep. 9, 2011 freeze date, the patient was censored at […]. […]
Correlation between IDH1 mutation and RBP1 methylation was determined using the Spearman correlation test. […]

In assay [2] the test system is unselected glioma patients. Conditions: patients not selected for any biomarker/mutation (Yung 1996); cited from earlier work.
In assay [3] the test system is patients with primary glioblastoma. The assay is described as follows: Kaplan-Meier analysis of overall survival in a preliminary cohort of 414 primary glioblastoma patients, with or without upfront isotretinoin. The class given is in vivo, human. How it is done:
Survival for an unpublished preliminary cohort of 414 patients with primary glioblastoma were analyzed with Kaplan-Meier analysis. Survival curves for patients with wild-type or IDH1/2 mutant genotypes with or without upfront treatment with isotretinoin, in combination with standard-of-care debulking surgery, temozolomide, and radiation therapy, are shown. […] WT=wild-type, MUT=IDH1 MUT, ITR=isotretinoin (13-cis retinoic acid).
Specifically, the median overall survival for IDH1 mutant glioblastoma patients treated with isotretinoin was 81 months as compared with 36 months for similar IDH1 mutant glioblastoma patients who were not treated with isotretinoin. […] Therefore, in some embodiments, the present invention is directed to methods of treating IDH1/IDH2 mutant gliomas in subjects, which comprise administering to the subjects having been diagnosed with an IDH1 and/or an IDH2 mutation and/or RBP1 promoter hypermethylation one or more retinoids.

As for `CC1=C(/C=C/C(C)=C/C=C/C(C)=C\C(=O)O)C(C)(C)CCC1` [isotretinoin, 13-cis retinoic acid], the “median OS (overall survival)” value in assay [1] (RBP1-methylated primary GBM patients who received isotretinoin (n=7), untreated 36.7 months, P=0.53) is recorded as 82.5 months; in assay [1] (RBP1-unmethylated primary GBM patients who received adjuvant isotretinoin with temozolomide (n=19), untreated 19.8 months, P=0.25), 22.0 months. Further, the “efficacy in unselected glioma patients” value in assay [2] is on record as “little to only modest efficacy”. The median overall survival in assay [3] (IDH1 mutant glioblastoma patients treated with isotretinoin, 36 months for similar patients not treated) came out at 81 months. Moreover, the “effect on overall survival, IDH1/IDH2 mutant glioblastoma” value in assay [3] (upfront isotretinoin with standard-of-care debulking surgery, temozolomide and radiation, patients with IDH1 or IDH2 mutant glioblastoma) is recorded as “significantly improve the overall survival; also recorded: significantly increased overall survival”. In assay [3] (upfront isotretinoin with standard-of-care debulking surgery, temozolomide and radiation, patients with wild-type tumors (WT)), the “effect on overall survival, wild-type tumors” value is reported as “only modest increase in overall survival”.
